Source: US20260364184A1, “COMPOUND BASED ON OXOISOINDOLINYL-SUBSTITUTED TETRAHYDROPYRIMIDINE-DIONE AND USE THEREOF” (GLUETACS THERAPEUTICS (SHANGHAI) CO., LTD., priority 2023, published 2026)
Each block holds one molecule with its values, some of them ahead of it.

Assays:
AKT = assay: Western blot degradation of AKT; type: cell-based; settings: hPBMC Cell; 24 hours
Description: (§1) Conventional Western blot assay was performed to evaluate the effects of the compounds of the present disclosure on the expression of target proteins in cells.
(§2) (1) Cell Seeding and Protein Harvesting: The selected cells were processed according to the cell seeding procedure and protein harvesting procedure in Table II-2.
(§3) (2) To the collected supernatant, 5×SDS sample loading buffer was added, followed by denaturation at 95 °C for 5 minutes. The denatured samples were then separated by SDS-PAGE electrophoresis on a polyacrylamide gel. Proteins were transferred to a nitrocellulose membrane (0.45 μm NC membrane), blocked with blocking buffer at room temperature for 1 hour, and subjected to antibody incubation and development procedures according to the antibody manufacturer's instructions (Cell Signaling Technology).
(§4) Half-Maximal Degradation Concentration value (the drug concentration required for degrading proteins by 50%, abbreviated as DC50) reads method: comparing the grayscale values of Western blot bands from drug-treated samples with those from blank DMSO-treated controls, and identifying the drug concentration range at which the grayscale value is half that of the DMSO-treated control bands.
(§5) DC50 values can be calculated using ImageJ software to measure grayscale values of Western blot bands from drug-treated samples. The concentration-response curve is fitted to estimate the drug concentration corresponding to half the grayscale value.
(§6) Target protein remaining (%) refers to the percentage of target protein remaining in cells after treatment with protein degrader compounds.
(§7) Calculation method for target protein remaining (%): Use ImageJ software to measure grayscale values of Western blot bands from drug (protein degrader)-treated samples. The grayscale value of drug-treated bands is divided by that of internal control protein bands, and the resulting quotient is normalized to obtain the relative percentage of remaining target protein after protein degrader treatment.
(§8) Target protein degradation rate (%)=1−target protein remaining (%).

[1] = test system: Human malignant melanoma cell line (A375); assay: Inhibition of A375 cell proliferation (CellTiter luminescent viability); settings: A-375, Table III (II1), EZH2 inhibitor-based, 96 hours; for inhibition at 0.01 µM: A375, 10 nM, read-out: Inhibition Rate at 10 nM (%); for inhibition at 0.5 µM: A375, 500 nM, read-out: Inhibition Rate at 500 nM (%)
Description: (§9) The tumor cells used herein were cultured in a cell culture medium listed in table 3 at 37 °C in an incubator with 5% CO2. Prior to experimentation, all cell lines used were correctly identified by STR profiling, and tested negative for mycoplasma contamination using a mycoplasma detection kit through routine screenings.
(§10) The IC50 values of the compounds of the present disclosure (including the compounds in Table 1, Table 2, and Examples 1-468) were determined using the CellTiter-Meiluncell Luminescent Cell Viability Assay Kit from Dalian Meilun Biotech Co., Ltd. The detailed procedure is as follows: Tumor cells were seeded in 96-well cell culture plates at the densities specified in Table 4. On the following day, the test compounds of the present disclosure were subjected to serial dilution. The dilution can be performed according to one of the following two methods: • (1) The first dilution method: The test compounds of the present disclosure (including the compounds in Table 1, Table 2, and Examples 1-468) were subjected to 5-fold serial dilutions starting from a highest concentration of 2000 μM, resulting in a total of 9 concentrations from high to low (2000, 400, 80, 16, 3.2, 0.64, 0.128, 0.0256, 0.00512 μM). Subsequently, 0.5 μL of the test compound dilution was transferred into the 96-well plate containing the cells, with each well containing 100 μL of cell culture medium. […] Into the 96-well plate, the diluted test compounds and corresponding detection reagents were added, resulting in final test compound concentrations of 500 nM and 10 nM, respectively. The experimental procedure is described below using the diluted 2 μM test compound as an example.
(§11) 0.5 μL of the aforementioned diluted compound of the present disclosure (including the compounds in Table 1, Table 2, and Examples 1-468) was added to the seeded cells in 100 μL of medium, yielding a final test compound concentration of 10 nM. After the cells were treated with the compounds of the present disclosure for a specified period, the cell viability assay reagent was added to the culture medium according to the kit's instructions to determine cell viability. […] All controls were treated using the same procedure as the compounds of the present disclosure. The growth inhibition curves for the compounds of the present disclosure were plotted using Prism GraphPad software, and the IC50 values were calculated therefrom.

[2] = test system: Human neuroblastoma cell line (SK-N-AS); assay: Inhibition of SK-N-AS cell proliferation (CellTiter luminescent viability); type: cell-based; settings: Table II2, EZH2 inhibitor-based, 96 hours
Description: as §9, §10, §11

[3] = test system: Human large cell immunoblastic lymphoma cell line SR; assay: Inhibition of SR cell proliferation (CellTiter luminescent viability); type: cell-based; settings: Table IB1, ALK inhibitor-based, 96 hours, read-out: Inhibitory activity (IC50, nM) on tumor cell proliferation, SR
Summary of the method: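 IC50 is fitted from luminescent viability (CellTiter-Meiluncell) curves. Nine-point, 5-fold dilution series (top stock 2000 μM) are added at 0.5 μL per 100 μL medium to cells plated the day before, with growth at 37 °C and 5% CO2.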

ALK = target: T1, ALK (Homo sapiens, UniProt Q9UM73); assay: Western blot degradation of ALK; type: cell-based; settings: H2228 Cell; 24 hours
T1 construct: known EML4-ALK variant 3 fusion, ALK kinase part unmutated), Western blot
Description: as §1, §2, §3, §4, §5, §6, §7, §8

T1 sequence (Q9UM73 19-1620): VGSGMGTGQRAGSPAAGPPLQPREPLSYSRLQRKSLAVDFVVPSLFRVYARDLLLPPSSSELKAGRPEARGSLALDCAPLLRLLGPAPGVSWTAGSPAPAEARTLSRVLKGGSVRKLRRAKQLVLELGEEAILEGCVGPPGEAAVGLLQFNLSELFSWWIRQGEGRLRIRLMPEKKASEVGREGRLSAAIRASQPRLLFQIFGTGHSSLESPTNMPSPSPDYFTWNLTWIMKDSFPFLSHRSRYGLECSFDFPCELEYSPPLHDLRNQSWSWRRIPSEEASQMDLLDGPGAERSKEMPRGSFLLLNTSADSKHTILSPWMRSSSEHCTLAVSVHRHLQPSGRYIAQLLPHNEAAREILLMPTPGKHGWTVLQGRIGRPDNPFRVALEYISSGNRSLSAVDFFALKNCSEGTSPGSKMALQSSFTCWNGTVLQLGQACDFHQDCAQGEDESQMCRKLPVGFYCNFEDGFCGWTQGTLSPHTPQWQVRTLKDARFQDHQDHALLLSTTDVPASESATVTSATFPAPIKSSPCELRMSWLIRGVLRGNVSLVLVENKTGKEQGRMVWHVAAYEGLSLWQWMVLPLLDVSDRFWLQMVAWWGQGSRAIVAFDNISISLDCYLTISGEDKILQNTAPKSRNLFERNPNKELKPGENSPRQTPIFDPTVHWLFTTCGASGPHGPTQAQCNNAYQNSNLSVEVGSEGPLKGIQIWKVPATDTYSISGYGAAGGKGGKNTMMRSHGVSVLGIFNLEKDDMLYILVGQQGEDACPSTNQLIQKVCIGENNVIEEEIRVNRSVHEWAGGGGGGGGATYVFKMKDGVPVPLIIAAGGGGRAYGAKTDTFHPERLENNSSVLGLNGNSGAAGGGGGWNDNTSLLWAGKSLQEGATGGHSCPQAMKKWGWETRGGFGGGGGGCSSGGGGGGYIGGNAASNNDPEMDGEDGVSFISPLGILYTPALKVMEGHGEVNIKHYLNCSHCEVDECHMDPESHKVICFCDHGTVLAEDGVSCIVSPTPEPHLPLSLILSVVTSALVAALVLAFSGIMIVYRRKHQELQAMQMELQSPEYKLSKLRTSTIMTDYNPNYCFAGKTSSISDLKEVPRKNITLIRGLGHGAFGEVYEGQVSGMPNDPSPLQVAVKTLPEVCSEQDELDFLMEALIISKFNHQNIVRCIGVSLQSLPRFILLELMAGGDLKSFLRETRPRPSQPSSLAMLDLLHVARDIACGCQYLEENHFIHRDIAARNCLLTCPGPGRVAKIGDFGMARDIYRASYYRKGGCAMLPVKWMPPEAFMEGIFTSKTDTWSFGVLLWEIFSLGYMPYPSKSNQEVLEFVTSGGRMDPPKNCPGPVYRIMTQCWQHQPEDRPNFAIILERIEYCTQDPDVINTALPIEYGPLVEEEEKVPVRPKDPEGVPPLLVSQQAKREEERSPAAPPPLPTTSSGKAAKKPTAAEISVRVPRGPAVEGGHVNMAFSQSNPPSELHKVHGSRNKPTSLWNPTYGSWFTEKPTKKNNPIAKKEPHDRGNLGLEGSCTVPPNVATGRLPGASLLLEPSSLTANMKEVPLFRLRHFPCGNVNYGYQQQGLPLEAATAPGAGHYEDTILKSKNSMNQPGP
T1 sequence (Q96SW2 whole entry partner, the tested form may be a part): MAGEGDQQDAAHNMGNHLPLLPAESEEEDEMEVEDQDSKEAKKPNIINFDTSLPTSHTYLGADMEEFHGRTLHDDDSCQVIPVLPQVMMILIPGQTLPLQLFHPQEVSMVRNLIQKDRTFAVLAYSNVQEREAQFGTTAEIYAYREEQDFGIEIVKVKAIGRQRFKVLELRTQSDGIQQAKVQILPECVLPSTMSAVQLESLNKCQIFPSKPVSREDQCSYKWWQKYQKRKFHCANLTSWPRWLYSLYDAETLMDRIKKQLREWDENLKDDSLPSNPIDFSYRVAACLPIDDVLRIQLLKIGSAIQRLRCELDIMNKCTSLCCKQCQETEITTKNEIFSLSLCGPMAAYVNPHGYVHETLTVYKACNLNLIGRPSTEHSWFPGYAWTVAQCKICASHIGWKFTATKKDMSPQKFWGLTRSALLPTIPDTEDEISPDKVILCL

Structure (SMILES): Cn1ncc(Cl)c1-c1cc(C(=O)N[C@H](CNCC2CCN(c3ccc4c(c3)C(=O)N(N3CCC(=O)NC3=O)C4=O)CC2)Cc2cccc(F)c2)sc1Cl [GT-08582, (S)-5-chloro-4-(4-chloro-1-methyl-1H-pyrazol-5-yl)-N-(1-(((1-(2-(2,4-dioxotetrahydropyrimidin-1(2H)-yl)-1,3-dioxoisoindolin-5-yl)piperidin-4-yl)methyl)amino)-3-(3-fluorophenyl)propan-2-yl)thiophene-2-carboxamide]
Degradation of substrate protein AKT (substrate protein remaining %) (AKT): A (0%≤substrate protein remaining %≤80%)

Structure (SMILES): Cn1ncc(Cl)c1-c1cc(C(=O)N[C@H](CNCc2ccc3c(c2)CN(N2CCC(=O)NC2=O)C3=O)Cc2cccc(F)c2)sc1Cl [GT-08572, (S)-5-chloro-4-(4-chloro-1-methyl-1H-pyrazol-5-yl)-N-(1-(((2-(2,4-dioxotetrahydropyrimidin-1(2H)-yl)-1-oxoisoindolin-5-yl)methyl)amino)-3-(3-fluorophenyl)propan-2-yl)thiophene-2-carboxamide]
Degradation of substrate protein AKT (substrate protein remaining %) (AKT): A (0%≤substrate protein remaining %≤80%)

Structure (SMILES): CCN(c1cc(-c2ccc(CN3CCOCC3)cc2)cc(C(=O)NCc2c(C)cc(C)[nH]c2=O)c1C)C1CCOCC1 [Tazemetostat, reference compound]
inhibition at 0.01 µM [1]: 0 to 5%
inhibition at 0.5 µM [1]: 0 to 5%

Structure (SMILES): CCN(c1cc(-c2ccc(CN3CCN(Cc4ccc5c(c4)CN(N4CCC(=O)NC4=O)C5=O)CC3)cc2)cc(C(=O)NCc2c(C)cc(C)[nH]c2=O)c1C)C1CCOCC1 [GT-08508, N-((4,6-dimethyl-2-oxo-1,2-dihydropyridin-3-yl)methyl)-4′-((4-((2-(2,4-dioxotetrahydropyrimidin-1(2H)-yl)-1-oxoisoindolin-5-yl)methyl)piperazin-1-yl)methyl)-5-(ethyl(tetrahydro-2H-pyran-4-yl)amino)-4-methyl-[1,1′-biphenyl]-3-carboxamide]
inhibition at 0.01 µM [1]: 20 to 30%
inhibition at 0.5 µM [1]: 20 to 30%

Structure (SMILES): Cn1ncc(Cl)c1-c1cc(C(=O)N[C@@H](Cc2ccc(F)c(F)c2)CN2CCN(Cc3ccc4c(c3)C(=O)N(N3CCC(=O)NC3=O)C4=O)CC2)oc1Cl [GT-08580, (S)-5-chloro-4-(4-chloro-1-methyl-1H-pyrazol-5-yl)-N-(1-(3,4-difluorophenyl)-3-(4-((2-(2,4-dioxotetrahydropyrimidin-1(2H)-yl)-1,3-dioxoisoindolin-5-yl)methyl)piperazin-1-yl)propan-2-yl) furan-2-carboxamide]
Degradation of substrate protein AKT (substrate protein remaining %) (AKT): A (0%≤substrate protein remaining %≤80%)

Structure (SMILES): Cn1ncc(Cl)c1-c1cc(C(=O)N[C@@H](Cc2cccc(F)c2)CN2CCN(CC3CCN(c4ccc5c(c4)C(=O)N(N4CCC(=O)NC4=O)C5=O)CC3)CC2)sc1Cl [GT-08586, (S)-5-chloro-4-(4-chloro-1-methyl-1H-pyrazol-5-yl)-N-(1-(4-((1-(2-(2,4-dioxotetrahydropyrimidin-1(2H)-yl)-1,3-dioxoisoindolin-5-yl)piperidin-4-yl)methyl)piperazin-1-yl)-3-(3-fluorophenyl)propan-2-yl)thiophene-2-carboxamide]
Degradation of substrate protein AKT (substrate protein remaining %) (AKT): A (0%≤substrate protein remaining %≤80%)

Structure (SMILES): CCN(c1cc(-c2ccc(CN3CCN(CC4CCN(c5ccc6c(c5)C(=O)N(N5CCC(=O)NC5=O)C6=O)CC4)CC3)cc2)cc(C(=O)NCc2c(C)cc(C)[nH]c2=O)c1C)C1CCOCC1 [GT-08518, N-((4,6-dimethyl-2-oxo-1,2-dihydropyridin-3-yl)methyl)-4′-((4-((1-(2-(2,4-dioxotetrahydropyrimidin-1(2H)-yl)-1,3-dioxoisoindolin-5-yl)piperidin-4-yl)methyl)piperazin-1-yl)methyl)-5-(ethyl(tetrahydro-2H-pyran-4-yl)amino)-4-methyl-[1,1′-biphenyl]-3-carboxamide]
inhibition at 0.01 µM [1]: 20 to 30%
inhibition at 0.5 µM [1]: 20 to 30%

Structure (SMILES): CCN(c1cc(-c2ccc(N3CCN(C4CCN(Cc5ccc6c(c5)C(=O)N(N5CCC(=O)NC5=O)C6=O)CC4)CC3)cc2)cc(C(=O)NCc2c(C)cc(C)[nH]c2=O)c1C)C1CCOCC1 [GT-08515, N-((4,6-dimethyl-2-oxo-1,2-dihydropyridin-3-yl)methyl)-4′-(4-(1-((2-(2,4-dioxotetrahydropyrimidin-1(2H)-yl)-1,3-dioxoisoindolin-5-yl)methyl)piperidin-4-yl)piperazin-1-yl)-5-(ethyl(tetrahydro-2H-pyran-4-yl)amino)-4-methyl-[1,1′-biphenyl]-3-carboxamide]
inhibition at 0.01 µM [1]: 20 to 30%
inhibition at 0.5 µM [1]: 20 to 30%
inhibition at 0.01 µM ([2]; 10 nM, read-out: Inhibition Rate at 10 nM (%)): 20 to 30%
inhibition at 0.5 µM ([2]; 500 nM, read-out: Inhibition Rate at 500 nM (%)): 20 to 30%

Structure (SMILES): Cn1ncc(Cl)c1-c1cc(C(=O)N[C@@H](Cc2ccc(F)c(F)c2)CN2CCN(Cc3ccc4c(c3)CN(N3CCC(=O)NC3=O)C4=O)CC2)oc1Cl [GT-08575, (S)-5-chloro-4-(4-chloro-1-methyl-1H-pyrazol-5-yl)-N-(1-(3,4-difluorophenyl)-3-(4-((2-(2,4-dioxotetrahydropyrimidin-1(2H)-yl)-1-oxoisoindolin-5-yl)methyl)piperazin-1-yl)propan-2-yl) furan-2-carboxamide]
Degradation of substrate protein AKT (substrate protein remaining %) (AKT): A (0%≤substrate protein remaining %≤80%)

Structure (SMILES): CCCc1cc(C)[nH]c(=O)c1CNC(=O)c1cc(-c2ccc(N3CCN(CC4CCN(c5ccc6c(c5)C(=O)N(N5CCC(=O)NC5=O)C6=O)CC4)CC3)nc2)cc2c1cnn2C(C)C [GT-08516, 6-(6-(4-((1-(2-(2,4-dioxotetrahydropyrimidin-1(2H)-yl)-1,3-dioxoisoindolin-5-yl)piperidin-4-yl)methyl)piperazin-1-yl)pyridin-3-yl)-1-isopropyl-N-((6-methyl-2-oxo-4-propyl-1,2-dihydropyridin-3-yl)methyl)-1H-indazole-4-carboxamide]
inhibition at 0.01 µM [1]: 20 to 30%
inhibition at 0.5 µM [1]: 20 to 30%

IC50 [3]: 10 to 50 nM
Degradation of substrate protein ALK (substrate protein remaining %) (ALK): A (0%≤substrate protein remaining %≤80%)
Structure (SMILES): CCc1cc2c(cc1N1CCC(N3CCN(CC4CCN(c5ccc6c(c5)C(=O)N(N5CCC(=O)NC5=O)C6=O)CC4)CC3)CC1)C(C)(C)c1[nH]c3cc(C#N)ccc3c1C2=O [GT-06823, 8-(4-(4-((1-(2-(2,4-dioxotetrahydropyrimidin-1(2H)-yl)-1,3-dioxoisoindolin-5-yl)piperidin-4-yl)methyl)piperazin-1-yl)piperidin-1-yl)-9-ethyl-6,6-dimethyl-11-oxo-6,11-dihydro-5H-benzo[b]carbazole-3-carbonitrile]
